In ChEMBL document CHEMBL4765227, “Hit to lead optimization of a series of N-[4-(1,3-benzothiazol-2-yl)phenyl]acetamides as monoacylglycerol lipase inhibitors with potential anticancer activity” (Eur J Med Chem, 2016):

Assays:
Assay type in all cases: functional
PC-3 = assay: Growth inhibition of human PC-3 cells incubated for 48 hrs by sulforhodamine B assay
BT-549 = assay: Growth inhibition of human BT-549 cells incubated for 48 hrs by sulforhodamine B assay
SF-539 = assay: Growth inhibition of human SF-539 cells incubated for 48 hrs by sulforhodamine B assay
DU-145 = assay: Growth inhibition of human DU-145 cells incubated for 48 hrs by sulforhodamine B assay
OVCAR-5 = assay: Growth inhibition of human OVCAR-5 cells incubated for 48 hrs by sulforhodamine B assay
T47D = assay: Growth inhibition of human T47D cells incubated for 48 hrs by sulforhodamine B assay
MDA-MB-231 = assay: Growth inhibition of human MDA-MB-231 cells incubated for 48 hrs by sulforhodamine B assay
NCI-H23 = assay: Growth inhibition of human NCI-H23 cells incubated for 48 hrs by sulforhodamine B assay
RXF 393 = assay: Growth inhibition of human RXF 393 cells incubated for 48 hrs by sulforhodamine B assay
SNB-19 = assay: Growth inhibition of human SNB-19 cells incubated for 48 hrs by sulforhodamine B assay
M14 = assay: Growth inhibition of human M14 cells incubated for 48 hrs by sulforhodamine B assay
MDA-MB-435 = assay: Growth inhibition of human MDA-MB-435 cells incubated for 48 hrs by sulforhodamine B assay
NCI-H522 = assay: Growth inhibition of human NCI-H522 cells incubated for 48 hrs by sulforhodamine B assay
SK-MEL-5 = assay: Growth inhibition of human SK-MEL-5 cells incubated for 48 hrs by sulforhodamine B assay
A498 = assay: Growth inhibition of human A498 cells incubated for 48 hrs by sulforhodamine B assay
TK-10 = assay: Growth inhibition of human TK-10 cells incubated for 48 hrs by sulforhodamine B assay
HCT-15 = assay: Growth inhibition of human HCT-15 cells incubated for 48 hrs by sulforhodamine B assay
Malme-3M = assay: Growth inhibition of human Malme-3M cells incubated for 48 hrs by sulforhodamine B assay
K562 = assay: Growth inhibition of human K562 cells incubated for 48 hrs by sulforhodamine B assay
UACC-62 = assay: Growth inhibition of human UACC-62 cells incubated for 48 hrs by sulforhodamine B assay
HCC 2998 = assay: Growth inhibition of human HCC 2998 cells incubated for 48 hrs by sulforhodamine B assay
SF-295 = assay: Growth inhibition of human SF-295 cells incubated for 48 hrs by sulforhodamine B assay
UACC-257 = assay: Growth inhibition of human UACC-257 cells incubated for 48 hrs by sulforhodamine B assay
MCF7 = assay: Growth inhibition of human MCF7 cells incubated for 48 hrs by sulforhodamine B assay
Hs-578T = assay: Growth inhibition of human Hs-578T cells incubated for 48 hrs by sulforhodamine B assay
CAKI-1 = assay: Growth inhibition of human CAKI-1 cells incubated for 48 hrs by sulforhodamine B assay
HOP-92 = assay: Growth inhibition of human HOP-92 cells incubated for 48 hrs by sulforhodamine B assay
UO-31 = assay: Growth inhibition of human UO-31 cells incubated for 48 hrs by sulforhodamine B assay
ACHN = assay: Growth inhibition of human ACHN cells incubated for 48 hrs by sulforhodamine B assay
SW-620 = assay: Growth inhibition of human SW-620 cells incubated for 48 hrs by sulforhodamine B assay
KM12 = assay: Growth inhibition of human KM12 cells incubated for 48 hrs by sulforhodamine B assay
OVCAR-4 = assay: Growth inhibition of human OVCAR-4 cells incubated for 48 hrs by sulforhodamine B assay
HOP-62 = assay: Growth inhibition of human HOP-62 cells incubated for 48 hrs by sulforhodamine B assay
MOLT-4 = assay: Growth inhibition of human MOLT-4 cells incubated for 48 hrs by sulforhodamine B assay
SN12C = assay: Growth inhibition of human SN12C cells incubated for 48 hrs by sulforhodamine B assay
SK-MEL-28 = assay: Growth inhibition of human SK-MEL-28 cells incubated for 48 hrs by sulforhodamine B assay
[1] = read-out: LC50 (the source's name)

Compound: O=C(CNc1ccc(Cl)cc1)Nc1ccc(-c2nc3ccccc3s2)cc1
- GI50 (PC-3): 2.01 µM
- TGI (PC-3): 5.13 µM
- CC50 (PC-3; [1]): 17.9 µM
- GI50 (BT-549): 1.57 µM
- LC50 (concentration killing 50% of cells) (BT-549): 9.1 µM
- TGI (BT-549): 3.78 µM
- GI50 (SF-539): 1.86 µM
- LC50 (SF-539): 7.14 µM
- TGI (SF-539): 3.65 µM
- GI50 (DU-145): 3.34 µM
- LC50 (concentration killing 50% of cells) (DU-145): 32.1 µM
- TGI (DU-145): 10.3 µM
- GI50 (OVCAR-5): 2.26 µM
- LC50 (concentration killing 50% of cells) (OVCAR-5): 23.9 µM
- TGI (OVCAR-5): 5.8 µM
- GI50 (T47D): 1.86 µM
- LC50 (concentration killing 50% of cells) (T47D): > 100 µM
- TGI (T47D): 5.94 µM
- GI50 (MDA-MB-231): 2.86 µM
- LC50 (concentration causing 50% cell kill) (MDA-MB-231): > 100 µM
- TGI (MDA-MB-231): 10.3 µM
- GI50 (NCI-H23): 2.04 µM
- LC50 (lethal concentration 50%) (NCI-H23): 21.6 µM
- TGI (NCI-H23): 4.7 µM
- GI50 (RXF 393): 1.66 µM
- LC50 (concentration killing 50% of cells) (RXF 393): 7.68 µM
- TGI (RXF 393): 3.57 µM
- GI50 (SNB-19): 2.81 µM
- LC50 (SNB-19): 57.9 µM
- TGI (SNB-19): 10.2 µM
- GI50 (M14): 1.78 µM
- TGI (M14): 3.84 µM
- CC50 (M14; [1]): 8.28 µM
- GI50 (MDA-MB-435): 2.66 µM
- LC50 (MDA-MB-435): 42.7 µM
- TGI (MDA-MB-435): 11.1 µM
- GI50 (NCI-H522): 1.32 µM
- LC50 (50% lethal concentration) (NCI-H522): 7.46 µM
- TGI (NCI-H522): 3.13 µM
- GI50 (SK-MEL-5): 1.57 µM
- LC50 (50% lethal concentration) (SK-MEL-5): 6.53 µM
- TGI (SK-MEL-5): 3.2 µM
- GI50 (A498): 13 µM
- TGI (A498): 25.8 µM
- CC50 (A498; [1]): 50.9 µM
- GI50 (TK-10): 2.2 µM
- LC50 (TK-10): 21.5 µM
- TGI (TK-10): 5.84 µM
- GI50 (HCT-15): 1.56 µM
- TGI (HCT-15): 4.74 µM
- CC50 (HCT-15; [1]): 45.9 µM
- GI50 (Malme-3M): 1.98 µM
- TGI (Malme-3M): 4.22 µM
- CC50 (Malme-3M; [1]): 8.99 µM
- GI50 (K562): 2.95 µM
- LC50 (K562): > 100 µM
- TGI (K562): > 100 µM
- GI50 (UACC-62): 1.7 µM
- LC50 (UACC-62): 19.4 µM
- TGI (UACC-62): 4.22 µM
- GI50 (HCC 2998): 1.9 µM
- TGI (HCC 2998): 3.54 µM
- CC50 (HCC 2998; [1]): 6.58 µM
- GI50 (SF-295): 1.28 µM
- LC50 (concentration causing 50% net cell kill) (SF-295): 61.8 µM
- TGI (SF-295): 28.1 µM
- GI50 (UACC-257): 3.12 µM
- LC50 (UACC-257): 57.7 µM
- TGI (UACC-257): 11.1 µM
- GI50 (MCF7): 0.0325 µM
- LC50 (MCF7): > 100 µM
- TGI (MCF7): 2.5 µM
- GI50 (Hs-578T): 4.41 µM
- LC50 (Hs-578T): > 100 µM
- TGI (Hs-578T): 37.7 µM
- GI50 (CAKI-1): 2.74 µM
- LC50 (concentration killing 50% of cells) (CAKI-1): 34.4 µM
- TGI (CAKI-1): 10.5 µM
- GI50 (HOP-92): 2.4 µM
- LC50 (concentration killing 50% of cells) (HOP-92): 37.8 µM
- TGI (HOP-92): 8.11 µM
- GI50 (UO-31): 1.96 µM
- LC50 (concentration killing 50% of cells) (UO-31): 40.3 µM
- TGI (UO-31): 9.79 µM
- GI50 (ACHN): 2.31 µM
- LC50 (ACHN): 18.2 µM
- TGI (ACHN): 5.57 µM
- GI50 (SW-620): 1.89 µM
- LC50 (concentration killing 50% of cells) (SW-620): 8.08 µM
- TGI (SW-620): 3.9 µM
- GI50 (KM12): 3.24 µM
- LC50 (concentration killing 50% of cells) (KM12): 33.5 µM
- TGI (KM12): 11.1 µM
- GI50 (OVCAR-4): 2.24 µM
- LC50 (OVCAR-4): 42.3 µM
- TGI (OVCAR-4): 8.49 µM
- GI50 (HOP-62): 3.34 µM
- TGI (HOP-62): 12.9 µM
- CC50 (HOP-62; [1]): > 100 µM
- GI50 (MOLT-4): 1.25 µM
- LC50 (MOLT-4): > 100 µM
- TGI (MOLT-4): 7.09 µM
- GI50 (SN12C): 2.74 µM
- LC50 (SN12C): 73.4 µM
- TGI (SN12C): 8.49 µM
- GI50 (SK-MEL-28): 2.03 µM
- LC50 (SK-MEL-28): 9.72 µM
- TGI (SK-MEL-28): 4.44 µM
